Measurements reported in ChEMBL document CHEMBL1150881, “Glacins A and B: two novel bioactive mono-tetrahydrofuran acetogenins from Annona glabra” (J Nat Prod, 1998).
In brackets after ≈: the same amount, converted by molar mass.

Assays:
A549 = test: Cytotoxicity against human A549 cells after 7 days by MTT assay; assay type: functional; conditions: A549, 168 h, read-out: ED50 (the source's name)
MCF7 = test: Cytotoxicity against human MCF7 cells after 7 days by MTT assay; assay type: functional; conditions: MCF7, 168 h, read-out: ED50 (the source's name)
HT-29 = test: Cytotoxicity against human HT-29 cells after 7 days by MTT assay; assay type: functional; conditions: HT-29, 168 h, read-out: ED50 (the source's name)
A498 = test: Cytotoxicity against human A498 cells after 7 days by MTT assay; assay type: functional; conditions: A498, 168 h, read-out: ED50 (the source's name)
PC-3 = test: Cytotoxicity against human PC3 cells after 7 days by MTT assay; assay type: functional; conditions: PC-3, 168 h, read-out: ED50 (the source's name)
MIA PaCa-2 = test: Cytotoxicity against human MIAPaCa2 cells after 7 days by MTT assay; assay type: functional; conditions: MIA PaCa-2, 168 h, read-out: ED50 (the source's name)
[1] = Toxicity in Artemia salina; assay type: organism-based; conditions: in vivo

SMILES	EC50 (A549) [µg/mL]	EC50 (MCF7) [µg/mL]	EC50 (HT-29) [µg/mL]	EC50 (A498) [µg/mL]	EC50 (PC-3) [µg/mL]	EC50 (MIA PaCa-2) [µg/mL]	LC50 [1] [µg/mL]
COc1cccc2c1C(=O)c1c(O)c3c(c(O)c1C2=O)C[C@@](O)(C(=O)CO)C[C@@H]3O[C@H]1C[C@H](N)[C@H](O)[C@H](C)O1 [DOXORUBICIN]	0.0191 (≈ 0.0351 µM)	0.179 (≈ 0.329 µM)	0.0278 (≈ 0.0511 µM)	0.0062 (≈ 0.0114 µM)	0.046 (≈ 0.0846 µM)	0.0153 (≈ 0.0281 µM)	–
CCCCCCCCCC[C@@H](O)[C@H]1CC[C@H]([C@H](O)CCCC[C@H](O)CCCCCCC[C@@H](O)CC2=C[C@H](C)OC2=O)O1 [GLACIN A]	1.53 (≈ 2.56 µM)	0.00442 (≈ 0.00741 µM)	2.3 (≈ 3.85 µM)	1.25 (≈ 2.09 µM)	0.00981 (≈ 0.0164 µM)	0.00857 (≈ 0.0144 µM)	0.11 (≈ 0.184 µM)
CCCCCCCCCC[C@H](O)[C@@H](O)CCCC[C@H]1CC[C@H]([C@H]2CC[C@H]([C@H](O)CCCCC[C@@H](O)CC3=C[C@H](C)OC3=O)O2)O1 [GLACIN B]	1.29 (≈ 2.02 µM)	0.052 (≈ 0.0814 µM)	0.0868 (≈ 0.136 µM)	2.61 (≈ 4.08 µM)	0.0559 (≈ 0.0875 µM)	0.0274 (≈ 0.0429 µM)	0.27 (≈ 0.423 µM)
